Data: US5889020A, “Treatment of normotensive glaucoma with angiotensin II antagonists” (CIBA Vision Corporation, priority 1994, dated 1999)

Experiments:
[1] = test system: perfused isolated pig's eye; assay: Ophthalmic flow in the perfused isolated pig's eye
Protocol: For the perfusion method on the isolated pig's eye, the fatty tissue which surrounds the extraocular muscles is carefully removed. During this preparation, the ocular globe is surrounded with modified Krebs-Ringer bicarbonate solution at 4° C. The ocular globe is then cannulated under the microscope using a polyethylene cannula (600 μm diameter), namely via the common ophthalmic artery.
Following this preparation, the ocular globe is connected via the polyethylene cannula to a Langendorff perfusion system, and in this way supplied at the latest 1 hour after the start of preparation with a filtered and oxygenated Krebs solution which contains 0.5% albumin.
The catheterization of the common ophthalmic artery guarantees the complete perfusion both of the choroidal and of the retinal tissue and of the small extraocular muscular arteries. The perfused ocular globe is immersed in a thermostated (37° C.) control bath with a glass jacket with the cornea pointed downwards. The overflow rate (ml/min) in the bath corresponds to the ophthalmic flow. Before testing a composition, the ocular globe is equilibrated for 20 minutes. In a control experiment, it is shown that the ophthalmic flow in the experimental procedure selected remains constant for about 120 minutes after the start of the perfusion. All tests are therefore carried out within this time frame.
A perfused isolated pig's eye is first treated as described above with a control solution and then with a solution comprising angiotensin II (10^-6 M). After the determination of the angiotensin II effect, valsartan (10^-5 M) is additionally added on top of the above exposure. The relative ophthalmic flow rate resulting in this way is shown below.

ciliary artery = assay: Ciliary artery contraction, myograph method (tissue ring contracted with angiotensin II); design: species or system pig
Excerpt: For the myographic determinations, a short segment (7-8 mm) of the ciliary arteries of fresh eyes, e.g. pig's eyes, is dissected and cut into small rings of thickness 2 mm under a microscope (cf. for this K. Yao et al. Invest. Ophthalmaol. Vis. Sci. 32, 1791-1798(1991) and M. J. Mulvany, W. Halpern Circ. res. 41, 19-26(1977)). During the preparation, the tissue is immersed in modified Krebs-Ringer bicarbonate solution. These rings (diameter about 200-400 μm) are installed in the myograph system without delay. Such a tissue ring is stretched using two tungsten wires (diameters 30 and 80 μm), the wires being passed through the lumen. One wire is connected to the power transmission, the other to a micromanipulator for adjustment of muscle length. The tissue ring is immersed in a control solution during the experiment (37°; 95% O2; 5% CO2; pH=7.4) and equilibrated for 45 minutes before testing.
The tissue ring is stretched stepwise and at the same time 100 mM KCl is added in each case. The optimum passive tension is then defined as the tension at which the contraction with 100 mM KCl is greatest. For ciliary arteries, an averaged value for the tension of 977 mg±60 mg is found. The active residual tone of this tissue is defmed as the difference between the optimum passive tension and the tension after a maximum relaxation with 10^-6 molar bradykinin. The corresponding tension is 174 mg±38 mg. In all subsequent experiments, the abovementioned tissue rings are slowly stretched at 100 mg intervals until the optimum is reached.
Before the actual experiment, the endothelial function of such a tissue ring is checked for intactness. The tissue rings are challenged to contract by using 3. 10^-7 molar serotonin solution and in the experimental procedure described above. Thereafter it is checked whether a complete relaxation of the contracted tissue ring occurs with 3. 10^-7 molar bradykinin solution. If this condition is fulfilled, the tissue is held to be intact.
Determination of the ciliary artery contraction using the myograph method
After it was verified as described above that the endothelial functions of a tissue ring of a ciliary artery are intact, the tissue ring preparation is incubated (contracted) with 10^-7 M angiotensin II, and then relaxed with various doses of the angiotensin II antagonist valsartan.

Row | Compound | Decrease in the relative ophthalmic flow ([1]; angiotensin II 10^-6 M plus valsartan 10^-5 M) | Blood flow-decreasing action of angiotensin II ([1]; valsartan 10^-5 M on top of angiotensin II 10^-6 M) | Relative contraction in comparison to 100 mM KCl (ciliary artery; ciliary artery ring contracted with 10^-7 M angiotensin II, valsartan 10^-5 M) | Relative contraction in comparison to 100 mM KCl (ciliary artery; ciliary artery ring contracted with 10^-7 M angiotensin II, valsartan 10^-6 M) | Relative contraction in comparison to 100 mM KCl (ciliary artery; ciliary artery ring contracted with 10^-7 M angiotensin II, valsartan 10^-7 M) | Relative contraction in comparison to 100 mM KCl (ciliary artery; ciliary artery ring contracted with 10^-7 M angiotensin II, valsartan 10^-8 M) | Relative contraction in comparison to 100 mM KCl (ciliary artery; ciliary artery ring contracted with 10^-7 M angiotensin II, valsartan 10^-9 M) | Contracting effect of angiotensin II on the ciliary artery (ciliary artery; valsartan added after 10^-7 M angiotensin II) | Decrease in the relative ophthalmic flow ([1]; angiotensin II 10^-6 M alone) | Relative contraction in comparison to 100 mM KCl (ciliary artery; 10^-7 M angiotensin II alone, no valsartan (pure angiotensin II effect))
1 | CCCCC(=O)N(Cc1ccc(-c2ccccc2-c2nn[nH]n2)cc1)[C@H](C(=O)O)C(C)C [valsartan] | 6.82 ± 3.02% | strongly reduced | 0.9 ± 0.45% | 0.93 ± 0.4% | 5.15 ± 1.6% | 8.1 ± 1.5% | 18.7 ± 2.2% | quantitatively abolished |  | 
2 | Angiotensin II: contracting agonist used to contract the ciliary artery and decrease ophthalmic flow (DRVYIHPF; Angiotensin-2; UniProt P01019 25-32, looked up) |  |  |  |  |  |  |  |  | 24.5 ± 3.05% | 27.9 ± 8.7%
